Source: the supplement of paper PMC4862054

How the values were obtained:
Conditions in all cases: incubation time: 72 h
[1] = test system: MFM-223; assay: normalised response (% of control), CellTiter-Glo; higher = more viable cells (100 = DMSO, 0 = benzethonium chloride kill control)
Description: (§1)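 DSRT, 72 h incubation, CellTox Green / CellTiter-Glo readout. Signal is normalised to DMSO and benzethonium chloride controls. Value is the normalised response at dose 3.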

[2] = test system: HCC1599; assay: as above
Description: as §1

[3] = test system: Hs578T; assay: as above
Description: as §1

[4] = test system: MCF-10A; assay: as above
Description: as §1

[5] = test system: MDA-MB-436; assay: as above
Description: as §1

[6] = test system: CAL-148; assay: as above
Description: as §1

[7] = test system: CAL-120; assay: as above
Description: as §1

[8] = test system: MDA-MB-231; assay: as above
Description: as §1

[9] = test system: HCC1937; assay: as above
Description: as §1

[10] = test system: MDA-MB-468; assay: as above
Description: as §1

[11] = test system: CAL-85-1; assay: as above
Description: as §1

[12] = test system: BT-474; assay: as above
Description: as §1

[13] = test system: HCC1143; assay: as above
Description: as §1

[14] = test system: MDA-MB-453; assay: as above
Description: as §1

[15] = test system: CAL-51; assay: as above
Description: as §1

[16] = test system: HDQ-P1; assay: as above
Description: as §1

[17] = test system: DU-4475; assay: as above
Description: as §1

[18] = test system: SK-BR-3; assay: as above
Description: as §1

[19] = test system: BT-549; assay: as above
Description: as §1

[20] = test system: MFM-223; assay: normalised response (% of control), CellTox Green; higher = less cell death (100 = DMSO, 0 = benzethonium chloride kill control)
Summary of the method: (§2)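 Breast cancer cell lines (20 µl suspension) were seeded into 384-well plates holding compound at 5 concentrations in 10-fold steps over a compound-specific 10,000-fold range, then incubated 72 h. CellTox Green fluorescence (485/520 nm) was read first, then CellTiter-Glo luminescence after 10 min at room temperature. Each plate was normalised to 0.1 % DMSO (100) and a positive kill control (0). Each value is the normalised signal at a single concentration of the series.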

[21] = test system: HCC1599; assay: as above
Summary of the method: as §2

[22] = test system: Hs578T; assay: as above
Summary of the method: as §2

[23] = test system: MCF-10A; assay: as above
Summary of the method: as §2

[24] = test system: MDA-MB-436; assay: as above
Summary of the method: as §2

[25] = test system: CAL-148; assay: as above
Summary of the method: as §2

[26] = test system: CAL-120; assay: as above
Summary of the method: as §2

[27] = test system: MDA-MB-231; assay: as above
Summary of the method: as §2

[28] = test system: HCC1937; assay: as above
Summary of the method: as §2

[29] = test system: MDA-MB-468; assay: as above
Summary of the method: as §2

[30] = test system: CAL-85-1; assay: as above
Summary of the method: as §2

[31] = test system: BT-474; assay: as above
Summary of the method: as §2

[32] = test system: HCC1143; assay: as above
Summary of the method: as §2

[33] = test system: MDA-MB-453; assay: as above
Summary of the method: as §2

[34] = test system: CAL-51; assay: as above
Summary of the method: as §2

[35] = test system: HDQ-P1; assay: as above
Summary of the method: as §2

[36] = test system: DU-4475; assay: as above
Summary of the method: as §2

[37] = test system: BT-549; assay: as above
Summary of the method: as §2

Row | SMILES | normalised response [1] | normalised response [2] | normalised response [3] | normalised response [4] | normalised response [5] | normalised response [6] | normalised response [7] | normalised response [8] | normalised response [9] | normalised response [10] | normalised response [11] | normalised response [12] | normalised response [13] | normalised response [14] | normalised response [15] | normalised response [16] | normalised response [17] | normalised response [18] | normalised response [19] | normalised response [20] | normalised response [21] | normalised response [22] | normalised response [23] | normalised response [24] | normalised response [25] | normalised response [26] | normalised response [27] | normalised response [28] | normalised response [29] | normalised response [30] | normalised response [31] | normalised response [32] | normalised response [33] | normalised response [34] | normalised response [35] | normalised response [36] | normalised response [37]
1 | Nc1ncn([C@@H]2O[C@H](CO)[C@@H](O)[C@H]2O)c(=O)n1 [Azacitidine] (100 nM) | 98% | 100% | 100% | 103% | 99% | 101% | 96.3% | 98.1% | 97% | 96.4% | 99.1% | 102% | 98.6% | 89% | 99.8% | 103% | 91.1% | 96% | 101% | 97.8% | 98% | 103% | 87% | 79.5% | 103% | 96.9% | 88.1% | 99.4% | 115% | 108% | 101% | 56% | 83.8% | 99.3% | 64.8% | 98.2% | 99.9%
2 | O=NN(CCCl)C(=O)NCCCl [Carmustine] (100 nM) | 98.3% | 88% | 105% | 92.5% | 101% | 92.3% | 95.5% | 97.3% | 95.8% | 101% | 101% | 97.7% | 100% | 101% | 85% | 100% | 101% | 99.7% | 111% | 101% | 97.9% | 100% | 93.4% | 61.7% | 100% | 95.2% | 100% | 103% | 52.9% | 101% | 99.1% | 101% | 91.5% | 99.1% | 106% | 95.1% | 90.8%
3 | CC(=O)O[C@@]12CO[C@@H]1C[C@H](O)[C@@]1(C)C(=O)[C@H](O)C3=C(C)[C@@H](OC(=O)[C@H](O)[C@@H](NC(=O)OC(C)(C)C)c4ccccc4)C[C@@](O)([C@@H](OC(=O)c4ccccc4)[C@H]21)C3(C)C [Docetaxel] (10 nM) | 54.3% | 71.9% | 28.1% | 46.2% | 40.7% | 38.2% | 61.7% | 53.4% | 67.3% | 22.7% | 26.6% | 67.8% | 35.5% | 61.2% | 43.1% | 69.4% | 68.8% | 12.2% | 20.5% | 77.9% | 95.8% | 39.5% | 56.1% | 79.8% | 61.8% | 88.8% | -111% | 24.7% | 104% | 26.6% | 65.8% | 88.9% | 99.3% | 11.5% | -5.27% | 94% | 63.4%
4 | Nc1nc2[nH]cnc2c(=S)[nH]1 [Thioguanine] (100 nM) | 96.8% | 96.5% | 101% | 97.4% | 97% | 102% | 108% | 93.5% | 96.3% | 98.8% | 91.9% | 83.4% | 101% | 112% | 109% | 90.8% | 95.7% | 98.9% | 95.9% | 98.7% | 97.1% | 90.5% | 75.6% | 89% |  | 100% | 105% | 96.7% | 66.4% | 111% | 102% | 59.1% | 99% | 108% | 104% | 101% | 103%
